From patent US9937178B2, “Methods of identifying and using MDM2 inhibitors” (DUKE UNIVERSITY, priority 2011, dated 2018) come the findings set out here.

Assay [1] deals with MDM2. Kind of assay: Immunoblot of MDM2 protein levels. The note with it: 1 μM lapatinib. Format: cell-based. (Immunoblotting shows a protein as a band on a membrane.)
Description: Cells treated with 1 μM lapatinib were harvested at various time points and immunoblotted. […] BT474 and rBT474 cells were transiently transfected with HA-tagged Huwe1 and subsequently treated with 50 μg/ml cycloheximide (CHX) and 1 μM lapatinib. […] Immunoprecipitation was carried out using H1299 cell lysates and anti-Huwe1 antibody (or control IgG). […] BT474 cells were transfected with HA-tagged Huwe1 encoding the full-length protein, residues 1-2474, or residues 2473-4374. […] BT474 cells were transfected with increasing amounts of MDM2 and harvested after 48 hours. […] SUM190 cells were transfected with Scrambled or MDM2-specific siRNA (100 nM) and harvested after 72 hours. […] Ubiquitylation of Huwe1 was reconstituted in vitro by incubating recombinant Huwe1 protein (Huwe1^1-2474) with E1, UbcH5 (E2), ubiquitin (Ub), and recombinant MDM2 protein in reaction buffer at 37° C. for 3 hours. […] Twenty-four hours later, the cells were replated and further transfected with HA-tagged Huwe1 (wild type). Forty-eight hours after siRNA transfection, the cells were treated with 1 μM lapatinib. After 24 hours of lapatinib treatment, 50 μg/ml cycloheximide (CHX) was added to the culture medium and cells were harvested at various time points for immunoblotting.
Assay [2] deals with HER2 (Homo sapiens, UniProt P04626). Kind of assay: Immunoblot of phospho-HER2 in lapatinib-treated cells. Format: cell-based. To be noted: 1 μM lapatinib, 24 hours, z-VAD 50 μM; even in resistant cells.
Description: (§1) FIG. 3B is a set of immunoblots showing the levels of HER2 and phospho-HER2 in untreated cells and cells treated with lapatinib. Cells were treated with or without lapatinib (1 μM) for 24 hours in the presence of the caspase inhibitor z-VAD (50 μM). The cells were harvested and cell lysates were immunoblotted using antibodies against phospho-HER2 (Y877) and total HER2. FIG. 3C is an immunoblot for phospho-AKT (T308) and total AKT. BT474 and rBT474 cells were treated with 1 μM lapatinib in the presence of 50 μM z-VAD. At the indicated time points, the cells were harvested and immunoblotted. FIG. 3D is an immunoblot for phospho-Erl1/2(T202/Y204) and total Erk1/2. BT474 and rBT474 cells were treated with 1 μM lapatinib in the presence of 50 μM z-VAD. At the indicated time points, the cells were harvested and immunoblotted.
Assay [3] relates to CAS mRNA. Kind of assay: Quantitative real-time PCR of CAS mRNA. The format is cell-based. To be noted: sensitive or resistant cells. A general note: Real-time PCR tracks product formation cycle by cycle.
Assay [4] has as its system HSP90β. Kind of assay: HSP90β phosphorylation (Ser226, Ser255). Format: cell-based.
Description: FIG. 7C is an autoradiograph of ^32P and an immunoblot showing the percentage of the protein phosphorylated. In the presence of [γ-^32P]ATP, recombinant His-tagged HSP90β proteins (wild type and the indicated mutants) on nickel beads were incubated with the HSP90β-targeted kinase casein kinase 2. FIG. 7D is an autoradiograph and corresponding immunoblot showing BT474 or rBT474 cells after being cultured in the absence or presence of 1 μM lapatinib for 24 hours in the presence of z-VAD. Recombinant His-tagged HSP90β protein on nickel beads was incubated with the cell lysates in the presence of [γ-^32P]ATP. FIG. 7E is an immunoblot for phospho-Hsp90β (Ser226) and total HSP90β at various time points. BT474 or rBT474 cells were treated with 1 μM lapatinib for the indicated amount of time. FIG. 7F is a set of graphs showing FACS analysis for the phosphorylation status of Hsp90β (Ser255). BT474 or rBT474 cells cultured in the presence of 1 μM lapatinib for 24 hours were fixed with formaldehyde and incubated with phospho-Hsp90β (Ser255) antibody followed by an Alexa488-conjugated secondary antibody.
For assay [5], the system named is BT474 xenografts. The assay is described as follows: BT474 mammary fat pad xenograft. The note with it: 100 mg/kg each drug, twice daily by oral gavage.
Description: Forty-eight hours after siRNA transfection, cells were treated with 1 μM lapatinib for 48 hours, and cells were harvested and subjected to Annexin V staining. The percentage of Annexin V-positive cells was analyzed by FACS. Results are expressed as a mean percentage±SEM and analyzed by t-test (*P<0.05). […] The oral administration of lapatinib (100 mg/kg, twice daily by oral gavage) began when the average tumor volume surpassed 300 mm^3. Results are expressed as a mean percentage±SEM. […] After 36 hours, cells were harvested and immunoblotted. […] BT474 and rBT474 cells were injected into the mammary fad pad of each mouse. When tumors developed to a size of 200 mm^3, the mice were randomly assigned to receive vehicle, lapatinib (100 mg/kg), Nutlin-3 (100 mg/kg), or Lapatinib+Nutlin-3 and treated twice daily by oral gavage. Results are expressed as a mean percentage±SEM. […] Percentage of apoptotic cell death was measured by FACS analysis using Annexin V. Results are expressed as a mean percentage±SEM of Annexin V-positive cells (*P<0.05 by t-test).
Six week-old female nude mice were purchased from NCI Frederic. Xenograft tumors were produced by injection into the mammary fat pad with cells (10×10^6). Tumor volumes were calculated every 3-4 days based on caliper measurements of the short (a) and long (b) tumor diameters (volume=a2b/2). […]
Assay [6] concerns rBT474, rSKBR3, rAU565 and rSUM190 cells. Kind of assay: Apoptotic cell death (Annexin V FACS) in lapatinib-resistant lines. The note with it: all four resistant lines. Format: cell-based. How it is done: FIG. 2 is a set of graphs showing the percentage of cells undergoing apoptotic cell death for each of the four cell lines and their matched resistant cell line in the presence or absence of lapatinib and/or an MDM2 inhibitor, MI-219, as measured by FACS analysis for Annexin V. Results are expressed as mean +/− SEM of Annexin V positive cells.
BT474, SKBR3, and AU565 cells were obtained from ATCC. SUM190 cells were obtained from Asterand, Inc. All cell lines were cultured in RPMI medium containing 10% fetal bovine serum (FBS). Lapatinib-resistant cells (rBT474, rSKBR3, rAU565, and rSUM190) were established as previously described^14. Cobleigh, et al. J. Clin. Oncol. 17, 2639-2648 (1999). Lapatinib-resistant cells were grown in the presence of 1 μM lapatinib unless otherwise stated.

In assay [7] the test system is Akt. Kind of assay: Immunoblot of phospho-AKT in lapatinib-treated cells. The format is cell-based. The note with it: sensitive and resistant cells, 1 μM lapatinib, 50 μM z-VAD.
Description: as §1
Assay [8] deals with caspase-9 / caspase-3 activation. Kind of assay: Cytochrome c-induced caspase activation in cell lysates. The format is cell-based. The note with it: lysates of resistant cells cultured in the presence of lapatinib.
Description: FIG. 7A is an immunoblot for caspase-9 (cleaved and non-cleaved) and cleaved caspase-3 (C9 and C3, respectively) showing rBT474 cells cultured in the absence or presence of 1 μM lapatinib for one week, as compared to BT474 cells which were maintained without lapatinib. Cytosolic lysates prepared from BT474 or rBT474 were incubated with 1 mM dATP and various amounts of cytochrome c (CC). FIG. 7B is a set of graphs showing Caspase 3 activity in the indicated cell lysates over time. Caspase-3 activity was assayed by measuring cleavage of DEVD-pNA following incubation of the cell lysates with 1 mM dATP and various concentrations of cytochrome c.
Cell lysates for apoptotic assays were prepared as described previously using buffer A (20 mM HEPES [pH 7.4], 10 mM KCl, 1.5 mM MgCl2, 1 mM EDTA, 1 mM EGTA, 1 mM dithiothreitol, 1 mM phenylmethylsulfonyl fluoride, 5 μg/ml leupeptin, and 5 μg/ml aprotinin). […]
Colorimetric caspase assays were performed by incubating cell lysate (3 μl) in 90 μl DEVDase buffer (50 mM HEPES [pH 7.5], 100 mMNaCl, 0.1% CHAPS, 10 mMDTT, 1 mMEDTA, 10% glycerol) containing the peptide substrate, Ac-DEVD-pNA (200 mM final concentration; BIOMOL Research Labs). […] Absorbance of the colorimetric product was measured at 405 nm using a Bio-Rad microplate reader.
The test system of assay [9] is CAS. Kind of assay: Immunoblot of CAS protein levels. The format is cell-based. How it is done:
FIG. 11 is a set of photographs of immunoblots showing CAS degradation in lapatinib-resistant cells. FIG. 11A is an immunoblot for CAS and Actin. BT474 and rBT474 (left) or AU565 and rAU565 cells (right) cultured in the absence of lapatinib for one week were treated with 1 μM lapatinib and the cells were harvested at various time points. FIG. 11B is an immmunoblot for CAS and Actin. rBT474 cells were maintained in the presence of […] lapatinib and the cells were harvested at various time points following removal of lapatinib. FIG. 11C is an immunoblot for FLAG and actin. BT474 and rBT474 cells were transiently transfected with FLAG-tagged CAS and subsequently treated with 50 μg/ml cycloheximide (CHX) and 1 μM lapatinib and the cells were harvested at various time points. FIG. 11D is an immunoblot using HA to analyze ubiquitination of CAS. BT474 and rBT474 (left) or SKBR3 and rSKBR3 cells (right) were co-transfected with FLAG-CAS and HA-Ub. […] After treatment with 10 μM MG 132 for 8 hours, cells were harvested and FLAG-CAS was retrieved by immunoprecipitation. FIG. 11E is an immunoblot for FLAG-tagged proteins retrieved by immunoprecipitation and association with MDM2. H1299 cells were transfected with empty vector, FLAG-CAS^W127A, or FLAG-CAS wild type. FIG. 11F is an immunoblot for CAs after immunoprecipitation for FLAG. H1299 cells were transfected with empty vector, FLAG-CAS^W127A, or FLAG-CAS wild type. Cells were treated with 10 μM MG132 for 3 hours. […] SKBR3 cells were transfected with increasing amounts of MDM2. After 48 hours, cells were harvested and immunoblotted (*non-specific band). FIG. 11H is an immunoblot for CAS. […] FIG. 11I is an immunoblot for MDM2 or CAs after immunoprecipitation with FLAG. BT474 and rBT474 cells were transfected with FLAG-CAS. […] After treatment with 10 μM MG132 for 5 hours, FLAG-CAS was retrieved by immunoprecipitation and association of endogenous MDM2 was analyzed by immunoblotting.

The test system of assay [10] is Erk1/2. Kind of assay: Immunoblot of phospho-Erk1/2 in lapatinib-treated cells. Format: cell-based. The note with it: sensitive and resistant cells, 1 μM lapatinib, 50 μM z-VAD.
Description: as §1

Chain of HER2 (P04626 23-1255): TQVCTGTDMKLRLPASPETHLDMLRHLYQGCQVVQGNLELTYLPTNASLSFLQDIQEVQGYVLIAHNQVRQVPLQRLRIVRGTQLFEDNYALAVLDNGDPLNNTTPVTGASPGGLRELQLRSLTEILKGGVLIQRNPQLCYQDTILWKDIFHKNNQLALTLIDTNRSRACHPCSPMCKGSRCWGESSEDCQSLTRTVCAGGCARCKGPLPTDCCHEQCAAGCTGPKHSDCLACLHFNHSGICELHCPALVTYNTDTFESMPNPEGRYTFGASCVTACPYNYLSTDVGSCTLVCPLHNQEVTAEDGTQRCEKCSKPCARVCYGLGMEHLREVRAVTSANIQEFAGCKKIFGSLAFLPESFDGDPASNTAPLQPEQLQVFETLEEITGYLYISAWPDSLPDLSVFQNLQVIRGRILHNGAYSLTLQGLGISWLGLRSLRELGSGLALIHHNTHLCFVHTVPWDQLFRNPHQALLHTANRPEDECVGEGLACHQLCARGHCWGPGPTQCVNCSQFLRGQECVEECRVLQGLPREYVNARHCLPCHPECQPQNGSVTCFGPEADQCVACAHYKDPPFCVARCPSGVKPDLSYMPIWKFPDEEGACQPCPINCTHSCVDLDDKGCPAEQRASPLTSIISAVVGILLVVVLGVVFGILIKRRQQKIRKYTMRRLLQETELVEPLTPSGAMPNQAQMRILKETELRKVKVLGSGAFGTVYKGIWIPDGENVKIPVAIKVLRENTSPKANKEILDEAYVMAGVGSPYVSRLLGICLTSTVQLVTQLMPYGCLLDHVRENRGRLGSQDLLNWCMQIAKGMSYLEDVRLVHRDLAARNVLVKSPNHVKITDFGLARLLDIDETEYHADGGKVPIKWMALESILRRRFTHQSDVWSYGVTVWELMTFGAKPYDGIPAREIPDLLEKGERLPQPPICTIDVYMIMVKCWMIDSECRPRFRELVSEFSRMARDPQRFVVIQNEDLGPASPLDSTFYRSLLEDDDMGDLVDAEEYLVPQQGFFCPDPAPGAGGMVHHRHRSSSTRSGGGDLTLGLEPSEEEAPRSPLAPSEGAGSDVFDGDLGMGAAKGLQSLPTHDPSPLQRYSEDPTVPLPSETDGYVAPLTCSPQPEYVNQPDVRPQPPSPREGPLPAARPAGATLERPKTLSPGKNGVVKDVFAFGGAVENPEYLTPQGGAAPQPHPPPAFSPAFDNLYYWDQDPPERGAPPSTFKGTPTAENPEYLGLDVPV

In the case of `CS(=O)(=O)CCNCc1ccc(-c2ccc3ncnc(Nc4ccc(OCc5cccc(F)c5)c(Cl)c4)c3c2)o1` [lapatinib], the MDM2 levels result in [1] (parental cells) is given as “rapidly decreased”; in assay [1] (resistant cells), “maintained”. For the same molecule, the HER2 tyrosine autophosphorylation entry in assay [2] is “inhibited”. The “CAS mRNA levels” value in assay [3] was “did not cause a reduction”. In [4] (lapatinib-treated resistant cells compared to sensitive cells), the “HSP90β phosphorylation at both Ser226 and Ser255” value is listed as “markedly decreased”. Besides, the HSP90β phosphorylation entry in [4] (normal BT474 cells, 1 μM lapatinib) is “did not prevent”. Further, the “growth of BT474-derived tumors” value in [5] is given as “significantly suppressed”. In addition, the “cell death in response to lapatinib treatment” value in assay [6] is listed as “did not die”. Besides, the “phosphorylation of Akt” value in assay [7] is recorded as “attenuated”. In addition, the “cytochrome c-induced caspase activation” value in assay [8] was “strong defects in caspase activation”. Further, the CAS protein levels result in assay [9] (low-HER2 lines non-responsive to lapatinib (e.g., T47D cells)) is “did not alter”; in [9] (parental cells, 1 μM lapatinib), “did not affect”; in assay [9] (resistant cells, 1 μM lapatinib), “declined over time”. The “phosphorylation of Erk1/2” value in [10] is recorded as “attenuated”.
